Test results taken from patent US12371454B2, “Cyclic peptide compound having Kras inhibitory action” (priority 2019, dated 2025).
Positions of bridges follow the written chain, without caps; N, C: chain ends. Non-standard residues stand in square brackets, D forms with d. Residues, ends and D or L forms follow the SMILES beside them. *: point of attachment. hPhe(3-Cl-4-CF3) = N[C@@H](CCc1ccc(C(F)(F)F)c(Cl)c1)C(=O)O; hPhe(3-F,4-CF3) = N[C@@H](CCc1ccc(C(F)(F)F)c(F)c1)C(=O)O; 3Oxa8azabicyclo(3.2.1)octane = C1CC2COCC1N2*; NMePhe(4-Me) = CN[C@@H](Cc1ccc(C)cc1)C(=O)O; NMeGly(cPent) = CN[C@H](C(=O)O)C1CCCC1; NMeCha = CN[C@@H](CC1CCCCC1)C(=O)O; NMeAhp(2) = CCCCC[C@H](NC)C(=O)O; NMeCba = CN[C@@H](CC1CCC1)C(=O)O; NMeChg = CN[C@H](C(=O)O)C1CCCCC1; NMeD = CN[C@@H](CC(=O)O)C(=O)O; NMeL = CN[C@@H](CC(C)C)C(=O)O; NMeV = CN[C@H](C(=O)O)C(C)C; Morpholide = C1CN(*)CCO1; NMeA = CN[C@@H](C)C(=O)O; Piperidide = C1CCN(*)CC1; Pyrrolidide = C1CCN(*)C1; Ac5c = NC1(C(=O)O)CCCC1; Aze = O=C(O)[C@@H]1CCN1; Ac3c = NC1(C(=O)O)CC1; Sar = CNCC(=O)O

Tests used:
[1] = target: T1, Kras and SOS1 (biotin-tagged human Kras loaded with GDP, His-tagged human SOS1) (Homo sapiens, UniProt P01116, G12D); test: Protein-protein interaction inhibition between Kras and SOS1 (KrasGl2D-SOS PPI) using AlphaScreen; assay type: binding; settings: AlphaScreen; biotin-tagged human Kras loaded with GDP, His-tagged human SOS1; read-out: KRAS G12D-SOS PPI IC50
T1 construct: made in house; host or cells: E. coli (stated for Kras only)
Procedure, shortened: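 Energy transfer from nickel-chelate donor beads bound to His-SOS1 to streptavidin acceptor beads bound to biotin-Kras, expressed in E. coli and loaded with GDP after purification, was monitored. Donors were excited at 680 nm; singlet oxygen reaching acceptors gave emission read at 520-620 nm.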

[2] = tested on: Human pancreatic cancer cell line AsPC-1; test: Measurement of AsPC-1 cell growth inhibition (AsPC-1 CGI); assay type: cell-based; settings: 96 h
Procedure, shortened: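 AsPC-1 cells in 15% FBS RPMI-1640 were exposed to test compound for 96 hours at 37° C, with CellTiter-Glo as endpoint.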

T1 sequence (P01116 1-188 isoform P01116-2 G12D): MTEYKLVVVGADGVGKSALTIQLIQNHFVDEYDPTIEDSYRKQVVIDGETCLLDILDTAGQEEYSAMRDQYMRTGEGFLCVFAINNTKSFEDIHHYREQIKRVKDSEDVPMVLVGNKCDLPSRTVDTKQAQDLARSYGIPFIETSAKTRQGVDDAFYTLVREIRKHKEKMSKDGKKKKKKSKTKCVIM

Structure (SMILES)	IC50 [1]	IC50 [2]
CC[C@H](C)[C@@H]1NC(=O)[C@H](CC(C)C)N(C)C(=O)C[C@@H](C(=O)N2CCCCC2)N(C)C(=O)[C@H](C2CCCCC2)N(C)C(=O)C2(CC2)NC(=O)[C@@H]2CCCN2C(=O)[C@H](CCc2ccc(C(F)(F)F)c(Cl)c2)NC(=O)CN(C)C(=O)[C@H](CC2CCCCC2)N(C)C(=O)CN(C)C(=O)CN(C)C1=O [Compound 1845] ([NMeL]I[Sar][Sar][NMeCha][Sar][hPhe(3-Cl-4-CF3)]P[Ac3c][NMeChg][NMeD]-Piperidide; lactam N-11)	0.84 nM	100 to 500 nM
CCCCC[C@H]1C(=O)N(C)CC(=O)N[C@@H](CCc2ccc(C(F)(F)F)c(Cl)c2)C(=O)N2CCC[C@H]2C(=O)NC2(CCCC2)C(=O)N(C)[C@@H](C2CCCCC2)C(=O)N(C)[C@H](C(=O)N2CCCCC2)CC(=O)N(C)[C@@H](CC(C)C)C(=O)N[C@@H]([C@@H](C)CC)C(=O)N(C)CC(=O)N(C)CC(=O)N1C [Compound 1846] ([NMeL]I[Sar][Sar][NMeAhp(2)][Sar][hPhe(3-Cl-4-CF3)]P[Ac5c][NMeChg][NMeD]-Piperidide; lactam N-11)	1.1 nM	100 to 500 nM
CC[C@H](C)[C@@H]1NC(=O)[C@H](C)N(C)C(=O)C[C@@H](C(=O)N2CCOCC2)N(C)C(=O)[C@H](C2CCCCC2)N(C)C(=O)C2(CCCC2)NC(=O)[C@@H]2CCCN2C(=O)[C@H](CCc2ccc(C(F)(F)F)c(Cl)c2)NC(=O)CN(C)C(=O)[C@H](CC2CCCCC2)N(C)C(=O)CN(C)C(=O)CN(C)C1=O [Compound 1847] ([NMeA]I[Sar][Sar][NMeCha][Sar][hPhe(3-Cl-4-CF3)]P[Ac5c][NMeChg][NMeD]-Morpholide; lactam N-11)	0.63 nM	100 to 500 nM
CC[C@H](C)[C@@H]1NC(=O)[C@H](CC(C)C)N(C)C(=O)C[C@@H](C(=O)N2CCCCC2)N(C)C(=O)[C@H](C2CCCC2)N(C)C(=O)C2(CCCC2)NC(=O)[C@@H]2CCCN2C(=O)[C@H](CCc2ccc(C(F)(F)F)c(Cl)c2)NC(=O)CN(C)C(=O)[C@H](Cc2ccc(C)cc2)N(C)C(=O)CN(C)C(=O)CN(C)C1=O [Compound 1850] ([NMeL]I[Sar][Sar][NMePhe(4-Me)][Sar][hPhe(3-Cl-4-CF3)]P[Ac5c][NMeGly(cPent)][NMeD]-Piperidide; lactam N-11)	0.6 nM	20 to 50 nM
CC[C@H](C)[C@@H]1NC(=O)[C@H](CC(C)C)N(C)C(=O)C[C@@H](C(=O)N2CCCCC2)N(C)C(=O)[C@H](CC2CCC2)N(C)C(=O)C2(CCCC2)NC(=O)[C@@H]2CCCN2C(=O)[C@H](CCc2ccc(C(F)(F)F)c(Cl)c2)NC(=O)CN(C)C(=O)[C@H](CC2CCCCC2)N(C)C(=O)[C@@H]2CCN2C(=O)[C@H](C)N(C)C1=O [Compound 1860] ([NMeL]I[NMeA][Aze][NMeCha][Sar][hPhe(3-Cl-4-CF3)]P[Ac5c][NMeCba][NMeD]-Piperidide; lactam N-11)	11 nM	100 to 500 nM
CC[C@H](C)[C@@H]1NC(=O)[C@H](CC(C)C)N(C)C(=O)C[C@@H](C(=O)N(C)C)N(C)C(=O)[C@H](C(C)C)N(C)C(=O)C2(CCCC2)NC(=O)[C@@H]2CCCN2C(=O)[C@H](CCc2ccc(C(F)(F)F)c(Cl)c2)NC(=O)CN(C)C(=O)[C@H](Cc2ccc(C)cc2)N(C)C(=O)CN(C)C(=O)CN(C)C1=O [Compound 1867] ([NMeL]I[Sar][Sar][NMePhe(4-Me)][Sar][hPhe(3-Cl-4-CF3)]P[Ac5c][NMeV][NMeD]-NMe2; lactam N-11)	0.73 nM	100 to 500 nM
CC[C@H](C)[C@@H]1NC(=O)[C@H](CC(C)C)N(C)C(=O)C[C@@H](C(=O)N2C3CCC2COC3)N(C)C(=O)[C@H](C2CCCCC2)N(C)C(=O)C2(CCCC2)NC(=O)[C@@H]2CCCN2C(=O)[C@H](CCc2ccc(C(F)(F)F)c(Cl)c2)NC(=O)CN(C)C(=O)[C@H](Cc2ccc(C)cc2)N(C)C(=O)CN(C)C(=O)CN(C)C1=O [Compound 1869] ([NMeL]I[Sar][Sar][NMePhe(4-Me)][Sar][hPhe(3-Cl-4-CF3)]P[Ac5c][NMeChg][NMeD]-{3Oxa8azabicyclo(3.2.1)octane}; lactam N-11)	0.76 nM	50 to 100 nM
CC[C@H](C)[C@@H]1NC(=O)[C@H](CC(C)C)N(C)C(=O)C[C@@H](C(=O)N2CCCC2)N(C)C(=O)[C@H](C2CCCCC2)N(C)C(=O)C2(CCCC2)NC(=O)[C@@H]2CCCN2C(=O)[C@H](CCc2ccc(C(F)(F)F)c(F)c2)NC(=O)CN(C)C(=O)[C@H](CC2CCCCC2)N(C)C(=O)CN(C)C(=O)CN(C)C1=O [Compound 1870] ([NMeL]I[Sar][Sar][NMeCha][Sar][hPhe(3-F,4-CF3)]P[Ac5c][NMeChg][NMeD]-Pyrrolidide; lactam N-11)	0.74 nM	20 to 50 nM
